Test results reported in patent publication US11504410B2, “Neuroprotection and neuroregeneration by pterostilbene and compositions thereof” (THERAPEUTIC SOLUTIONS INTERNATIONAL, INC., priority 2020, dated 2022).

Legend:
[1] = Relative bioavailability of pterostilbene; format: in vivo; conditions: compared with creatine monohydrate
Excerpt: Without being bound by any particular theory, due to its improved solubility, pterostilbene is also expected to have better oral absorption properties compared to various other neuroprotectants. As used herein, “bioavailability” refers to the rate and amount of a drug or supplement that reaches the systemic circulation of a patient following administration of the drug or supplement. […] The terms “treatment,” “treating,” and “treat, are used herein to refer generally to obtaining a desired pharmacological and/or physiological effect. The effect may be prophylactic in terms of completely or partially preventing a disease or symptom thereof and/or may be therapeutic in terms of a partial or complete stabilization or cure for a disease and/or adverse effect attributable to the disease. “Treatment” as used herein covers any treatment of a disease in a subject, and includes: (a) preventing the disease or symptom from occurring in a subject which may be predisposed to the disease or symptom, but has not yet been diagnosed as having it; (b) inhibiting the disease symptom, i.e., arresting its development; or (c) relieving the disease symptom, i.e., causing regression of the disease or symptom.

[2] = tested on: classical complement activation pathway; conditions: cited from earlier work
[3] = tested on: classical complement activation pathway; conditions: 15 U intravenously, cited from earlier work

Compound | relative bioavailability greater than creatine monohydrate [1] | mean arterial blood pressure (MABP) and arterial blood gases ([2]; rat, in vivo) | regional cerebral blood flow (rCBF) ([2]; rats, after occlusion, versus vehicle) | reduction of infarct volume ([2]; rats, infusion over 30 min after occlusion, evaluated after 5 days survival) [%] | improvement of focal neurologic deficits ([3]; 48 hours after ischemia) [%] | improvement of general neurologic deficits ([3]; 48 hours after ischemia) [%] | infarct volume of total brain ([3]; 48 hours after ischemia) [%+/−2.93%] | neutral red staining in cortex, hippocampus, and striatum [3]
COc1cc(/C=C/c2ccc(O)cc2)cc(OC)c1 [pterostilbene] | at least 50% | – | – | – | – | – | – | –
C1-INH: C1-esterase inhibitor, inhibits the classical complement activation pathway | – | unaffected by the treatment | No difference was noted between experimental groups | 72 | 54 | 36 | 6.69 | strong protective effect
